Consider two molecules from publication PMC9317966, “Structure-function analysis of the AMPK activator SC4 and identification of a potent pan AMPK activator” (Biochemical Journal, 2022).

Assay [1] deals with HepG2 cells and C2C12 myotubes. The arrangement: method as in PMID 28705990. The settings on record: cited from earlier work.
Assay [2] concerns mouse primary hepatocytes. Nature of the assay: Immunoblot of AMPK signalling in mouse primary hepatocytes. Format: cell-based. Conditions: 2.5 µM, 60 min. On the procedure:
(§1) To evaluate the efficacy of MSG011 in cellulo, we incubated mouse primary hepatocytes with 2.5 µM MSG011 for 60 min and tracked changes in phosphorylation of AMPK α-Thr172 (marker of activation) and the AMPK substrate acetyl-CoA carboxylase (ACC) Ser79 (AMPK signalling marker).
(§2) HEK293T/17, HEK293T, COS7, HeLa and PC3 cells (ATCC) were maintained in Dulbecco's Modified Eagle's medium (DMEM; Sigma–Aldrich) supplemented with 10% fetal bovine serum (FBS; Assay Matrix) at 37°C and 5% CO2. Primary hepatocytes from wild type mice were prepared using the collagenase perfusion method and cultured as described previously. Cultures were incubated with fresh DMEM (no FBS) for 2 h prior to 1 h treatment with MSG011 (dissolved in DMSO) or phenformin (dissolved in H2O). Adherent HEK293T/17 cells at ∼50% confluency were triply transfected with AMPK α1 (pcDNA3.1 vector), β1 (COOH-terminal MYC fusion, pcDNA3.1 vector) and WT γ1 or γ1-R299G mutant (NH2-terminal HA fusion, pMT2 vector) in the presence of FuGENE HD transfection reagent (Promega) as per the manufacturers protocol. […]
(§3) All samples were separated on 12% SDS–PAGE gels and transferred to an Immobilon-FL PVDF membrane (Merck Millipore). […] Immunoblots were visualised on the Odyssey Infrared Imaging System (LI-COR Biosciences) and immunoreactive bands analysed and quantified using Image Studio Software (LI-COR Biosciences).

Assay [3] relates to HEK293T cells. Briefly: Immunoblot of AMPK signalling in HEK293T cells. Conditions: 2.5 µM, 1 h. Format: cell-based. On the procedure:
as §1, §2, §3
Background: In western blotting, separated proteins are transferred to a membrane and probed.

In assay [4] the test system is COS7 cells. Briefly: Immunoblot of AMPK signalling in COS7 cells. Format: cell-based. The settings on record: COS7, 2.5 µM, 1 h. As for the experimental part:
as §1, §2, §3

On to `O[C@@H]1CO[C@H]2[C@@H]1OC[C@H]2Oc1nc2nc(-c3ccc(-c4ccccc4)cc3)c(Cl)cc2[nH]1` [MK-8722, reference compound], for which, in assay [1] (above 1 µM), the α-Thr172 phosphorylation result was “elevated α-Thr172”. The AMPK signalling entry in assay [1] (below 1 µM, in the absence of increased α-Thr172 phosphorylation) is listed as “stimulate AMPK signalling”.

As to `CC(=O)NC1CC=C(c2ccc(-c3nc4nc(Oc5ccc(C)c(C(=O)O)c5)[nH]c4cc3Cl)cc2)CC1` (stereo not drawn) [MSG011, 5-((5-(4′-Acetamido-2′,3′,4′,5′-tetrahydro-[1,1′-biphenyl]-4-yl)-6-chloro-1H-imidazo[4,5-b]pyridin-2-yl)oxy)-2-methylbenzoic acid], the “phosphorylation of AMPK α-Thr172” value in assay [2] is “independently of significant net phosphorylation of AMPK α-Thr172”. For the same molecule, in assay [3], the “AMPK signalling (phosphorylation of ACC-Ser79 and raptor-Ser792)” value is “at levels comparable to extreme energy stress”; the α-Thr172 phosphorylation entry is listed as “independent of changes to α-Thr172 phosphorylation”. For the same molecule, the “AMPK signalling (phosphorylation of ACC-Ser79 and raptor-Ser792)” value in assay [4] is recorded as “at levels comparable to extreme energy stress”.
